From ChEMBL document CHEMBL1201862, “PubChem BioAssay data set” (2004)
One block for each compound: values may come before it. Calls of active or inactive are those of the source.

Key:
[1] = target: T1, Caspase-3 (Homo sapiens, UniProt P42574); assay type: functional;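 further: Dose-response selectivity test against caspase-3 for candidate inhibitors of sentrin-specific proteases (SENPs)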
T1 sequence (P42574 whole entry): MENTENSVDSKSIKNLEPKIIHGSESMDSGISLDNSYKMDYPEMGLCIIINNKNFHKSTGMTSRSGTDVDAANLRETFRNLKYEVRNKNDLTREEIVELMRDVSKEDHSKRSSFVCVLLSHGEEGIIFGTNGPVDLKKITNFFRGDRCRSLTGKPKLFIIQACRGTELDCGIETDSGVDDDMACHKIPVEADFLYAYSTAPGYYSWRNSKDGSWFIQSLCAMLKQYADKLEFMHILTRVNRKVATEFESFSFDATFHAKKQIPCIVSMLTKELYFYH

[2] = target: T2, Sentrin-specific protease 6 (Homo sapiens, UniProt Q9GZR1); assay: SAR Analysis of small molecule inhibitors of Sentrin-specific protease 6 (SENP6) using a Luminescent assay. [Related pubchem assays (depositor defined):AID2582, AID2599]; assay type: functional
T2 sequence (Q9GZR1 whole entry): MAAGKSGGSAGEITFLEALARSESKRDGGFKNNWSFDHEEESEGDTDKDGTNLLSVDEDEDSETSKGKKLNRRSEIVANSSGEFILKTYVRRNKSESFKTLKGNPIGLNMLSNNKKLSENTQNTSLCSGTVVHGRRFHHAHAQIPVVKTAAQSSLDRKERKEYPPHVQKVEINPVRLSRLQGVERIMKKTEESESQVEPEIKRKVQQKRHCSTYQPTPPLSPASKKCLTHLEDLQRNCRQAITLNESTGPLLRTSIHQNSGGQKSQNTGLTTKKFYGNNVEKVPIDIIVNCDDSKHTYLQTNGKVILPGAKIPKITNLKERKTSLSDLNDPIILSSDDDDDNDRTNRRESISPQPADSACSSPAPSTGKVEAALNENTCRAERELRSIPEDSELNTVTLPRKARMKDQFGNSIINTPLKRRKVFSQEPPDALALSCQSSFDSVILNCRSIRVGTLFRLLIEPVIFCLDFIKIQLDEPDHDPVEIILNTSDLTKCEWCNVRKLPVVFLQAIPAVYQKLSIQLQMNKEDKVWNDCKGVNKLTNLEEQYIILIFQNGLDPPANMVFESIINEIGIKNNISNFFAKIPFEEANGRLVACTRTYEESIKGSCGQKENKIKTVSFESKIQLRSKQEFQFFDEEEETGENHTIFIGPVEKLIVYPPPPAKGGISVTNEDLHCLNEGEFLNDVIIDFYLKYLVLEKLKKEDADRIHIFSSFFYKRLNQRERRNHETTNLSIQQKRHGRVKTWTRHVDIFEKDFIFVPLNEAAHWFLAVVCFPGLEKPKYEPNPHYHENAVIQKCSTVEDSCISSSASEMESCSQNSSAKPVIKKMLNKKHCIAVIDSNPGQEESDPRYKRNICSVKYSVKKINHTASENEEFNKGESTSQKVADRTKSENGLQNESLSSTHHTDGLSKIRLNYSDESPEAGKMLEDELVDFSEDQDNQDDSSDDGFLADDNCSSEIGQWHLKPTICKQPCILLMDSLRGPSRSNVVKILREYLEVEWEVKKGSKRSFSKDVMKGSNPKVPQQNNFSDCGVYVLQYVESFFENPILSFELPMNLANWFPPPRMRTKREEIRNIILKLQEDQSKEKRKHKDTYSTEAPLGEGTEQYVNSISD

[3] = target: Casein kinase I isoform alpha (Homo sapiens, UniProt P48729); assay type: functional
Sequence of Casein kinase I isoform alpha (P48729 whole entry, canonical isoform): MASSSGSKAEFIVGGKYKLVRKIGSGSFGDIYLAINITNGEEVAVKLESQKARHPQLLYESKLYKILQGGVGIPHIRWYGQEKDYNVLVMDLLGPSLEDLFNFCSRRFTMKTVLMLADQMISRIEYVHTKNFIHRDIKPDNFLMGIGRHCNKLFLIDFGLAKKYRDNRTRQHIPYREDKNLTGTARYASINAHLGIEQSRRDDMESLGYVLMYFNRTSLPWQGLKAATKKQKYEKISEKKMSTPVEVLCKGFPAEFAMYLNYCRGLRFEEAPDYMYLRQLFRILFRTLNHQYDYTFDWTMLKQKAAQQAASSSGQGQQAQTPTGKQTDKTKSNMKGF

[4] = target: 5'-AMP-activated protein kinase catalytic subunit alpha-1 (Homo sapiens, UniProt Q13131); assay type: functional
Sequence of 5'-AMP-activated protein kinase catalytic subunit alpha-1 (Q13131 whole entry): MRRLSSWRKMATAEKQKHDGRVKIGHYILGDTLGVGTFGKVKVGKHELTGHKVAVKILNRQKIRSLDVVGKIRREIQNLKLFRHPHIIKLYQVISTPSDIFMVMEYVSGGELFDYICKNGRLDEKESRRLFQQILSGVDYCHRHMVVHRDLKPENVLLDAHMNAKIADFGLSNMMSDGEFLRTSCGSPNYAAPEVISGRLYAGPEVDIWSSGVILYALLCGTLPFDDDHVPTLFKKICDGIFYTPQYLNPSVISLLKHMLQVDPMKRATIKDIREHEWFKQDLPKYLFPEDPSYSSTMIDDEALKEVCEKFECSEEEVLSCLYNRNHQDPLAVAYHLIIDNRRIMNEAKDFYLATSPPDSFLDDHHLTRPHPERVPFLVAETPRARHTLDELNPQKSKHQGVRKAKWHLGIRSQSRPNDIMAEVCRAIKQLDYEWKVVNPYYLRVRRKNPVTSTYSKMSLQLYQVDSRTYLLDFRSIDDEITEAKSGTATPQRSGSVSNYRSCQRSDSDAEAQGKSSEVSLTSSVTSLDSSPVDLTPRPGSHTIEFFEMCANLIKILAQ

[5] = target: Activin receptor type-1 (Homo sapiens, UniProt Q04771); assay: Navigating the Kinome. Panel member name: ACVR1; assay type: functional
Sequence of Activin receptor type-1 (Q04771 whole entry): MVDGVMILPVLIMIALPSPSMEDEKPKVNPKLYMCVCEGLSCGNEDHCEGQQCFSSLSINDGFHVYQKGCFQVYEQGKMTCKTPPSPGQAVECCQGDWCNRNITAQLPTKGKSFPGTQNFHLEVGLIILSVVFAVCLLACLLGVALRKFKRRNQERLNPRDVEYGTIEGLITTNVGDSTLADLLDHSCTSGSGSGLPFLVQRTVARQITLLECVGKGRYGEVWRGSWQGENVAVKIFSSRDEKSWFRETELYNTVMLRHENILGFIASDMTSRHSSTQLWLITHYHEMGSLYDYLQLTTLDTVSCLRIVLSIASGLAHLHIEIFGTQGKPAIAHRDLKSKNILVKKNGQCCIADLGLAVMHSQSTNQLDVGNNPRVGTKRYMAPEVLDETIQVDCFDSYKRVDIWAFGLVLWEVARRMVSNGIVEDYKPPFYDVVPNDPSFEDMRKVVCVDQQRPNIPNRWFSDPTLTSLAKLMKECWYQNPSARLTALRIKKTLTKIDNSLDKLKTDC

[6] = target: Rho-associated protein kinase 1 (Homo sapiens, UniProt Q13464); assay type: functional;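 further: measured within a broad kinome-wide panel profiling many kinases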
Sequence of Rho-associated protein kinase 1 (Q13464 whole entry): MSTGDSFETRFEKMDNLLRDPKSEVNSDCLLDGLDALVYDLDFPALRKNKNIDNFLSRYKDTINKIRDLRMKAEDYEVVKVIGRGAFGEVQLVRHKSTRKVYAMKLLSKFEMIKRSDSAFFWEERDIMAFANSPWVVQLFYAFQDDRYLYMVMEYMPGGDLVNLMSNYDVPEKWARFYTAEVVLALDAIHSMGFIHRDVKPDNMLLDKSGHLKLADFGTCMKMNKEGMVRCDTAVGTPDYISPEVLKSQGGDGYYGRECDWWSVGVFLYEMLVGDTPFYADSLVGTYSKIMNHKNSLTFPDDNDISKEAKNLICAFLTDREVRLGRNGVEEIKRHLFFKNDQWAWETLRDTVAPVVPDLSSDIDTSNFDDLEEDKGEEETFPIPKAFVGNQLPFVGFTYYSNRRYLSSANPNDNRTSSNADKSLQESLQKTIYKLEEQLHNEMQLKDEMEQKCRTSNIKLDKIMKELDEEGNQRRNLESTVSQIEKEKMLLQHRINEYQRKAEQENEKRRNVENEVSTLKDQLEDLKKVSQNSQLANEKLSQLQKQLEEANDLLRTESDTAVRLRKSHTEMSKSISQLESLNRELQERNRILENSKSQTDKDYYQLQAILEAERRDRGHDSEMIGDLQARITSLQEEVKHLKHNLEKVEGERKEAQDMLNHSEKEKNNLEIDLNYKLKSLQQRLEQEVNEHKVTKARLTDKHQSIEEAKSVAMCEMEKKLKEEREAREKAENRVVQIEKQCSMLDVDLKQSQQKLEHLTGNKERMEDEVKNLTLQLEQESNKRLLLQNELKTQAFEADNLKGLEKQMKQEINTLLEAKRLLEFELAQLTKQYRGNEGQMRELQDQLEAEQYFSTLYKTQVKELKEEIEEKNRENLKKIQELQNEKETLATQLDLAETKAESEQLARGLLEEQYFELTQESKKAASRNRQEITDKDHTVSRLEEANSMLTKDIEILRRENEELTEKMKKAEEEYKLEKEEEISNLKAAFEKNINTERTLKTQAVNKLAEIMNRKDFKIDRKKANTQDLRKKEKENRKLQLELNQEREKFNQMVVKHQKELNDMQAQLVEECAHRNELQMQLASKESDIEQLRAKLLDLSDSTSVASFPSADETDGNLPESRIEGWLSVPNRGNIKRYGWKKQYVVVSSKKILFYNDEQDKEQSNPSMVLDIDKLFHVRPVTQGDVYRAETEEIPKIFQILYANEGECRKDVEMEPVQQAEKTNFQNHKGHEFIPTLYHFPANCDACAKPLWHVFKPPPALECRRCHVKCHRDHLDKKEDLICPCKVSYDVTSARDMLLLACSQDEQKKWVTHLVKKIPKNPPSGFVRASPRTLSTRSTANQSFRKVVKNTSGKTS

[7] = target: Serine/threonine-protein kinase TAO1 (Homo sapiens, UniProt Q7L7X3); assay type: functional
[8] = target: Cyclin-dependent kinase 5 (Homo sapiens, UniProt Q00535); assay type: functional;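 further: CDK5 measured as one member of a kinase profiling panel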
Sequence of Cyclin-dependent kinase 5 (Q00535 whole entry): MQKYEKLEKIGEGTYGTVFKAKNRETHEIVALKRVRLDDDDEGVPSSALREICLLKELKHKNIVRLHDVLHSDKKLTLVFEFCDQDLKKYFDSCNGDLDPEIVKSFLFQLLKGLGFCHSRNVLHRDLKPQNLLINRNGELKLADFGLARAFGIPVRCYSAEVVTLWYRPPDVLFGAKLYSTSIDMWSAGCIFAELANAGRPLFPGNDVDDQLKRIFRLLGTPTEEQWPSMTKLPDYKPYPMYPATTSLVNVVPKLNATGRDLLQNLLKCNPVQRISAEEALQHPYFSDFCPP

[9] = target: Serine/threonine-protein kinase Chk1 (Homo sapiens, UniProt O14757); assay type: functional;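 further: measured as one member of a kinome-wide kinase profiling panel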
Sequence of Serine/threonine-protein kinase Chk1 (O14757 whole entry): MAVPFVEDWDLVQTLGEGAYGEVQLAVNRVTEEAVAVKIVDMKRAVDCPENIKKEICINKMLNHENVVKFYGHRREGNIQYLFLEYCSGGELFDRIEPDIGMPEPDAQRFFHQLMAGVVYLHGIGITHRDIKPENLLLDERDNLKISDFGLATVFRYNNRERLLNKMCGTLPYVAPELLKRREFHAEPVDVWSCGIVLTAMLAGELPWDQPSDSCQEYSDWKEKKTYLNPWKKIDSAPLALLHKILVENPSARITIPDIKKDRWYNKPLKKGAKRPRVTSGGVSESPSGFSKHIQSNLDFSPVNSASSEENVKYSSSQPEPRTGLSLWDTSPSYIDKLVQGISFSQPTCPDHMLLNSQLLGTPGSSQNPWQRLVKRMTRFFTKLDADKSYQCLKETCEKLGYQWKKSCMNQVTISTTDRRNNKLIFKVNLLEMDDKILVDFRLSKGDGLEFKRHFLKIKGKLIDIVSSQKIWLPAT

[10] = target: Tyrosine-protein kinase Lck (Homo sapiens, UniProt P06239); assay type: functional;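 further: lck was assayed as one member of a kinase panel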
Sequence of Tyrosine-protein kinase Lck (P06239 whole entry): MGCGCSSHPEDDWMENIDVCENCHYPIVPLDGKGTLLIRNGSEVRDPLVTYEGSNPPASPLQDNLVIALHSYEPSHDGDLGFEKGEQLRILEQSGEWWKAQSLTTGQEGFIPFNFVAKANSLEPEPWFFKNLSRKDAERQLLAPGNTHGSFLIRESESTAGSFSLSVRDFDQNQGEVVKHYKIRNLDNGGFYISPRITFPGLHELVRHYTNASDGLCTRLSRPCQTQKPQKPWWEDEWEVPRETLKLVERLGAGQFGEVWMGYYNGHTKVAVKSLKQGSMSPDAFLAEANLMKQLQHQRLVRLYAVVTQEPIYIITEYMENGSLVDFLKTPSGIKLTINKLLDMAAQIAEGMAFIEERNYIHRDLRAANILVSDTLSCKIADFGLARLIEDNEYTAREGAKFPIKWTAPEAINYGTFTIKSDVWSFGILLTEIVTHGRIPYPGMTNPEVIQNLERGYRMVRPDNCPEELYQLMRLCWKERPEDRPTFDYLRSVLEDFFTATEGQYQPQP

[11] = target: Inhibitor of nuclear factor kappa-B kinase subunit epsilon (Homo sapiens, UniProt Q14164); assay: Navigating the Kinome. Panel member name: IKBKE; assay type: functional
Sequence of Inhibitor of nuclear factor kappa-B kinase subunit epsilon (Q14164 whole entry): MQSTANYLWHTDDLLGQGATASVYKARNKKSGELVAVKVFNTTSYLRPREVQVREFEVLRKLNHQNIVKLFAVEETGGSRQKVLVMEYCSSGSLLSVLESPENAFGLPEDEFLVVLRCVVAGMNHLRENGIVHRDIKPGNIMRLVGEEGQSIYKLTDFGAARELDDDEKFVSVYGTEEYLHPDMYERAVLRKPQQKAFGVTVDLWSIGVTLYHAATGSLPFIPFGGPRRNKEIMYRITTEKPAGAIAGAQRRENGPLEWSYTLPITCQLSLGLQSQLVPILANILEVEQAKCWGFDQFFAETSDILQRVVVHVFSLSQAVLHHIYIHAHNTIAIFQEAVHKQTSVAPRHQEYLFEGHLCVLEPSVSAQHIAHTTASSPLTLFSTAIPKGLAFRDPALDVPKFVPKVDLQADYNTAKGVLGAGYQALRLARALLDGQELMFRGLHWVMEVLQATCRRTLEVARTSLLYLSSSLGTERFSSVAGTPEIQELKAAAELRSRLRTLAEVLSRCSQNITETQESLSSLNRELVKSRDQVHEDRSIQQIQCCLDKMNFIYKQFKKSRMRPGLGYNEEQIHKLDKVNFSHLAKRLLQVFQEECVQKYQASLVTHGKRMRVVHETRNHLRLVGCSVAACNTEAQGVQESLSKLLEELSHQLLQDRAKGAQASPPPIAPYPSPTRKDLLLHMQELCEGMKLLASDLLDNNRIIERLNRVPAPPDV

[12] = target: T3, Insulin-degrading enzyme (Homo sapiens, UniProt P14735); assay: recombinant IDE activation, cell-free – biochemical, fluorescence polarization, counter-screen for IDE activator project, dose response (AID 588681)
T3 sequence (P14735 whole entry): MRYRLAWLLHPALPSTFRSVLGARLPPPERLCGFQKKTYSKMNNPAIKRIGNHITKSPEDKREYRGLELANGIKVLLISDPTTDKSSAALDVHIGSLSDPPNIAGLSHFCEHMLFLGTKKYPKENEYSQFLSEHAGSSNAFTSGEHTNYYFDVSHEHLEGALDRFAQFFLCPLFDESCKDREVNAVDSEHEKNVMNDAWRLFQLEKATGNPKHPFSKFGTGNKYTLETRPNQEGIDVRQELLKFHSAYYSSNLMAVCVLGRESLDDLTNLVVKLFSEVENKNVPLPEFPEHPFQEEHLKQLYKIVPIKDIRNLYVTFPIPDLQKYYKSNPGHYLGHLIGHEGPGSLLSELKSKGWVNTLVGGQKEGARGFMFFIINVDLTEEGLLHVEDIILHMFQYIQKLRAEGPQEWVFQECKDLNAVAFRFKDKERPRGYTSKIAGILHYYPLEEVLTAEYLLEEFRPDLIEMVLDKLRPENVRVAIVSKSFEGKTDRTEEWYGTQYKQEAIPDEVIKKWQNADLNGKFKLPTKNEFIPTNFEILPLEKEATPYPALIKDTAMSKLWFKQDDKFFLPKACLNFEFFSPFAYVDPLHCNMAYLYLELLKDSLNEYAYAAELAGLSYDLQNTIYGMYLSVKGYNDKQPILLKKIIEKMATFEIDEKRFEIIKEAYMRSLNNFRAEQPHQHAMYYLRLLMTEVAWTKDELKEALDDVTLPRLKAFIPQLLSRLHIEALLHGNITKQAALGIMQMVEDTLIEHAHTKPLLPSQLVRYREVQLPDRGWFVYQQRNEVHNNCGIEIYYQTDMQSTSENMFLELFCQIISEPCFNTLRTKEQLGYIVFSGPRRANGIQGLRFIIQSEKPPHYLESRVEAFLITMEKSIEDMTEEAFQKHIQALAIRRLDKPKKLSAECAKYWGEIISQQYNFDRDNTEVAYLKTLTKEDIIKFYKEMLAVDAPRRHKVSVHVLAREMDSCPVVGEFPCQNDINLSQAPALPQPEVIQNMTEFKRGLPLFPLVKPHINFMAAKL

IC50 [1]: > 100 µM (inactive) | IC50 [2]: 1.43 µM (active)
Compound: O=C(NNc1cc(N2CCCC2)nc(N2CCCC2)n1)c1ccc([N+](=O)[O-])cc1

Ki [3]: 0.631 µM (active) | Ki [4]: 1.58 µM (active) | Ki [5]: 3.16 µM (active) | Ki [6]: 3.16 µM (active) | Ki [7]: 6.31 µM (active) | Ki [8]: 1.58 µM (active) | Ki [9]: 0.316 µM (active) | Ki [10]: > 6.31 µM (inactive) | Ki [11]: > 3.16 µM (inactive)
Compound: O=C(Cc1cccs1)Nc1nc2ccccc2s1

Compound: O=S(=O)(O)c1cccc2c(N=Nc3ccc(O)c4ncccc34)cccc12
EC50 [12]: 17.3 µM (inactive)
